Assay results published in PMC8217813, “Bridging Computational Vaccinology and Vaccine Development Through Systematic Identification, Characterization, and Downselection of Conserved and Variable Circumsporozoite Protein CD4 T Cell Epitopes From Diverse Plasmodium falciparum Strains” (Frontiers in Immunology, 2021).
Peptide text beside a SMILES is read from it.

What was measured:
HLA A*0101 = target: T1, HLA A*0101 (Homo sapiens, UniProt P04439, A114D/A174V/A182V/D101N/D185E/E176A/E190D/L180R/Q94H/R68K/S129P/T187R/V100A/V91M/W191G); test: biochemical; format: binding; conditions: allele A0101, cell-free competition with fluorescently labeled control peptide, fluorescence polarization at 72 hours
T1 construct: Pure Protein, LLC (ran the assay)

[1] = test system: CD4 T cells co-cultured with autologous DCs from PBMCs; format: cell-based, human
[2] = DR1 donors N=5, positive = Stimulation Index ≥1.5-fold above baseline, ICCS, 5 µg/mL peptide
[3] = DR3 donors N=6, positive = Stimulation Index ≥1.5-fold above baseline, ICCS, 5 µg/mL peptide
[4] = DR4 donors N=10, positive = Stimulation Index ≥1.5-fold above baseline, ICCS, 5 µg/mL peptide
[5] = DR7 donors N=4, positive = Stimulation Index ≥1.5-fold above baseline, ICCS, 5 µg/mL peptide
[6] = DR8 donors N=4, positive = Stimulation Index ≥1.5-fold above baseline, ICCS, 5 µg/mL peptide
[7] = DR9 donors N=4, positive = Stimulation Index ≥1.5-fold above baseline, ICCS, 5 µg/mL peptide
[8] = DR11 donors N=4, positive = Stimulation Index ≥1.5-fold above baseline, ICCS, 5 µg/mL peptide
[9] = DR13 donors N=7, positive = Stimulation Index ≥1.5-fold above baseline, ICCS, 5 µg/mL peptide
[10] = DR15 donors N=7, positive = Stimulation Index ≥1.5-fold above baseline, ICCS, 5 µg/mL peptide

CC[C@H](C)[C@H](NC(=O)[C@H](CO)NC(=O)[C@H](CO)NC(=O)[C@@H](N)CC(N)=O)C(=O)NCC(=O)N[C@@H](CC(C)C)C(=O)N[C@H](C(=O)N[C@@H](CCSC)C(=O)N[C@H](C(=O)O)C(C)C)[C@@H](C)CC [Cluster 382_3D7] (H-NSSIGLIMV-OH)
IC50 (HLA A*0101; read-out: IC50): 215 µM

DQHIEQYLKTIQNSLSTEWS [ICS4]
Percentage of donors demonstrating IFN-γ responses, DR1 ([1]; DR1 donors N=5, positive = Stimulation Index ≥1.5-fold above baseline, ICCS after 14-day co-culture, 5 µg/mL peptide): 0% | Percentage of donors demonstrating IL-2 responses, DR1 [1, 2]: 20% | Percentage of donors demonstrating IL-4 responses, DR1 [1, 2]: 0% | Percentage of donors demonstrating IL-10 responses, DR1 [1, 2]: 0% | Percentage of donors demonstrating TNF-α responses, DR1 [1, 2]: 0% | Percentage of donors demonstrating IFN-γ responses, DR3 ([1]; DR3 donors N=6, positive = Stimulation Index ≥1.5-fold above baseline, ICCS after 14-day co-culture, 5 µg/mL peptide): 0% | Percentage of donors demonstrating IL-2 responses, DR3 [1, 3]: 0% | Percentage of donors demonstrating IL-4 responses, DR3 [1, 3]: 17% | Percentage of donors demonstrating IL-10 responses, DR3 [1, 3]: 0% | Percentage of donors demonstrating TNF-α responses, DR3 [1, 3]: 0% | Percentage of donors demonstrating IFN-γ responses, DR4 ([1]; DR4 donors N=10, positive = Stimulation Index ≥1.5-fold above baseline, ICCS after 14-day co-culture, 5 µg/mL peptide): 30% | Percentage of donors demonstrating IL-2 responses, DR4 [1, 4]: 20% | Percentage of donors demonstrating IL-4 responses, DR4 [1, 4]: 0% | Percentage of donors demonstrating IL-10 responses, DR4 [1, 4]: 10% | Percentage of donors demonstrating TNF-α responses, DR4 [1, 4]: 30% | Percentage of donors demonstrating IFN-γ responses, DR7 ([1]; DR7 donors N=4, positive = Stimulation Index ≥1.5-fold above baseline, ICCS after 14-day co-culture, 5 µg/mL peptide): 0% | Percentage of donors demonstrating IL-2 responses, DR7 [1, 5]: 0% | Percentage of donors demonstrating IL-4 responses, DR7 [1, 5]: 0% | Percentage of donors demonstrating IL-10 responses, DR7 [1, 5]: 0% | Percentage of donors demonstrating TNF-α responses, DR7 [1, 5]: 0% | Percentage of donors demonstrating IFN-γ responses, DR8 ([1]; DR8 donors N=4, positive = Stimulation Index ≥1.5-fold above baseline, ICCS after 14-day co-culture, 5 µg/mL peptide): 0% | Percentage of donors demonstrating IL-2 responses, DR8 [1, 6]: 0% | Percentage of donors demonstrating IL-4 responses, DR8 [1, 6]: 0% | Percentage of donors demonstrating IL-10 responses, DR8 [1, 6]: 0% | Percentage of donors demonstrating TNF-α responses, DR8 [1, 6]: 0% | Percentage of donors demonstrating IFN-γ responses, DR9 ([1]; DR9 donors N=4, positive = Stimulation Index ≥1.5-fold above baseline, ICCS after 14-day co-culture, 5 µg/mL peptide): 0% | Percentage of donors demonstrating IL-2 responses, DR9 [1, 7]: 0% | Percentage of donors demonstrating IL-4 responses, DR9 [1, 7]: 0% | Percentage of donors demonstrating IL-10 responses, DR9 [1, 7]: 0% | Percentage of donors demonstrating TNF-α responses, DR9 [1, 7]: 0% | Percentage of donors demonstrating IFN-γ responses, DR11 ([1]; DR11 donors N=4, positive = Stimulation Index ≥1.5-fold above baseline, ICCS after 14-day co-culture, 5 µg/mL peptide): 0% | Percentage of donors demonstrating IL-2 responses, DR11 [1, 8]: 25% | Percentage of donors demonstrating IL-4 responses, DR11 [1, 8]: 0% | Percentage of donors demonstrating IL-10 responses, DR11 [1, 8]: 0% | Percentage of donors demonstrating TNF-α responses, DR11 [1, 8]: 0% | Percentage of donors demonstrating IFN-γ responses, DR13 ([1]; DR13 donors N=7, positive = Stimulation Index ≥1.5-fold above baseline, ICCS after 14-day co-culture, 5 µg/mL peptide): 0% | Percentage of donors demonstrating IL-2 responses, DR13 [1, 9]: 0% | Percentage of donors demonstrating IL-4 responses, DR13 [1, 9]: 14% | Percentage of donors demonstrating IL-10 responses, DR13 [1, 9]: 0% | Percentage of donors demonstrating TNF-α responses, DR13 [1, 9]: 0% | Percentage of donors demonstrating IFN-γ responses, DR15 ([1]; DR15 donors N=7, positive = Stimulation Index ≥1.5-fold above baseline, ICCS after 14-day co-culture, 5 µg/mL peptide): 29% | Percentage of donors demonstrating IL-2 responses, DR15 [1, 10]: 14% | Percentage of donors demonstrating IL-4 responses, DR15 [1, 10]: 0% | Percentage of donors demonstrating IL-10 responses, DR15 [1, 10]: 0% | Percentage of donors demonstrating TNF-α responses, DR15 [1, 10]: 29% | median SI, IFN-γ recall responses ([1]; median stimulation index across donors, response with peptide divided by response with no peptide): 0.74

ELDYENDIEK [Cluster 357_CVX154]
IC50 (nM) (HLA A*0101): Non-Binder
